From US12077503B2, “Substituted cyclic amides and their use as herbicides” (FMC CORPORATION, priority 2015, dated 2024)

Tests used:
Assay type in all cases: in vivo
Kochia (Kochia scoparia) [1] = assay: Test A preemergence; details: Bassia scoparia, pre-emergence, 240 h, Preemergence
Procedure, shortened: (§1)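 Treatment is preemergence as a directed soil spray after planting, or postemergence at the one- to two-leaf stage, with test chemical in a non-phytotoxic solvent mixture plus surfactant. Plants stay in the greenhouse about 10 d before visual injury scoring on a 0 to 100 scale versus untreated controls.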

[2] = tested on: barnyardgrass (Echinochloa crus-galli); assay: Test A preemergence; details: Echinochloa crus-galli, pre-emergence, 240 h, Preemergence
Procedure, shortened: as §1

[3] = tested on: giant foxtail (Setaria faberii); assay: Test A preemergence; details: Setaria faberi, pre-emergence, 240 h, Preemergence
Procedure, shortened: as §1

[4] = tested on: pigweed (Amaranthus retroflexus); assay: Test A preemergence; details: Amaranthus retroflexus, pre-emergence, 240 h, Preemergence
[5] = tested on: ragweed (common ragweed, Ambrosia elatior); assay: Test A preemergence; details: Ambrosia artemisiifolia, pre-emergence, 240 h, Preemergence
Procedure, shortened: as §1

[6] = tested on: ryegrass, Italian (Italian ryegrass, Lolium multiflorum); assay: Test A preemergence; details: Lolium multiflorum, pre-emergence, 240 h, Preemergence
Procedure, shortened: as §1

[7] = tested on: Galium (catchweed bedstraw, Galium aparine); assay: Test A postemergence; details: Galium, post-emergence, 240 h, Postemergence, read-out: Galium plant response rating (0 to 100 scale)
Procedure, shortened: as §1

Kochia (Kochia scoparia) [8] = assay: Test A postemergence; details: Bassia scoparia, post-emergence, 240 h, Postemergence, read-out: Kochia plant response rating (0 to 100 scale)
Procedure, shortened: as §1

[9] = tested on: barnyardgrass (Echinochloa crus-galli); assay: Test A postemergence; details: Echinochloa crus-galli, post-emergence, 240 h, Postemergence
Procedure, shortened: as §1

[10] = tested on: blackgrass (Alopecurus myosuroides); assay: Test A postemergence; details: Alopecurus myosuroides, post-emergence, 240 h, Postemergence, read-out: Blackgrass plant response rating (0 to 100 scale)
Procedure, shortened: as §1

corn (Zea mays) = assay: Test A postemergence; details: Zea mays, post-emergence, 240 h, Postemergence, read-out: Corn plant response rating (0 to 100 scale)
Procedure, shortened: as §1

[11] = tested on: giant foxtail (Setaria faberii); assay: Test A postemergence; details: Setaria faberi, post-emergence, 240 h, Postemergence, read-out: Foxtail, Giant plant response rating (0 to 100 scale)
Procedure, shortened: as §1

[12] = tested on: pigweed (Amaranthus retroflexus); assay: Test A postemergence; details: Amaranthus retroflexus, post-emergence, 240 h, Postemergence, read-out: Pigweed plant response rating (0 to 100 scale)
Procedure, shortened: as §1

[13] = tested on: ragweed (common ragweed, Ambrosia elatior); assay: Test A postemergence; details: Ambrosia artemisiifolia, post-emergence, 240 h, Postemergence, read-out: Ragweed plant response rating (0 to 100 scale)
Procedure, shortened: as §1

[14] = tested on: ryegrass, Italian (Italian ryegrass, Lolium multiflorum); assay: Test A postemergence; details: Lolium multiflorum, post-emergence, 240 h, Postemergence, read-out: Ryegrass, Italian plant response rating (0 to 100 scale)
Procedure, shortened: as §1

[15] = tested on: wheat (Triticum aestivum); assay: Test A postemergence; details: Triticum aestivum, post-emergence, 240 h, Postemergence, read-out: Wheat plant response rating (0 to 100 scale)
Procedure, shortened: as §1

[16] = tested on: barnyardgrass (Echinochloa crus-galli); assay: Test B flooded paddy test; details: Echinochloa crus-galli, 360 h, Flood, 250 g ai/ha; visually evaluated after 13 to 15 d; read-out: Plant response rating, Barnyardgrass (0 to 100 scale where 0 is no effect and 100 is complete control)
Procedure, shortened: (§2)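 Response scored visually against untreated controls, 0 = no effect and 100 = complete control, 13–15 d after treatment in the greenhouse. Compounds added to paddy water held 3 cm above soil surface. Treatment given at 2-leaf stage.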

[17] = tested on: ducksalad (Heteranthera limosa); assay: Test B flooded paddy test; details: Heteranthera limosa, 360 h, Flood, 250 g ai/ha; visually evaluated after 13 to 15 d; read-out: Plant response rating, Ducksalad (0 to 100 scale where 0 is no effect and 100 is complete control)
Procedure, shortened: as §2

rice (Oryra sativa) = assay: Test B flooded paddy test; details: Oryza sativa, 360 h, Flood, 250 g ai/ha; visually evaluated after 13 to 15 d; read-out: Plant response rating, Rice (0 to 100 scale where 0 is no effect and 100 is complete control)
Procedure, shortened: as §2

[18] = tested on: sedge, umbrella (small-flower umbrella sedge, Cyperus difformis); assay: Test B flooded paddy test; details: Cyperus difformis, 360 h, Flood, 250 g ai/ha; visually evaluated after 13 to 15 d; read-out: Plant response rating, Sedge, Umbrella (0 to 100 scale where 0 is no effect and 100 is complete control)
Procedure, shortened: as §2

[19] = 125 g ai/ha, visual rating about 10 d after treatment
[20] = 31 g ai/ha, 0 is no effect, 100 is complete control

Structure (SMILES): O=C1NC[C@H](c2cc(Br)cc(Br)c2)[C@H]1C(=O)Nc1cccc(F)c1F [Compound 1366]
- pest or weed control at 31 g/ha (Kochia (Kochia scoparia) [1]; 31 g ai/ha, 0 to 100 scale where 0 is no effect and 100 is complete control, read-out: Kochia plant response rating): 0%
- pest or weed control at 125 g/ha (Kochia (Kochia scoparia) [1]; 125 g ai/ha, 0 to 100 scale (0 no effect, 100 complete control), read-out: Plant response rating, Kochia): 0%
- pest or weed control at 31 g/ha ([2]; 31 g ai/ha, 0 to 100 scale where 0 is no effect and 100 is complete control, read-out: Barnyardgrass plant response rating): 60%
- pest or weed control at 125 g/ha ([2]; 125 g ai/ha, 0 to 100 scale (0 no effect, 100 complete control), read-out: Plant response rating, Barnyardgrass): 70%
- pest or weed control at 31 g/ha ([3]; 31 g ai/ha, 0 to 100 scale where 0 is no effect and 100 is complete control, read-out: Foxtail, Giant plant response rating): 50%
- pest or weed control at 125 g/ha ([3]; 125 g ai/ha, 0 to 100 scale (0 no effect, 100 complete control), read-out: Plant response rating, Foxtail, Giant): 90%
- pest or weed control at 31 g/ha ([4]; 31 g ai/ha, 0 to 100 scale where 0 is no effect and 100 is complete control, read-out: Pigweed plant response rating): 0%
- pest or weed control at 125 g/ha ([4]; 125 g ai/ha, 0 to 100 scale (0 no effect, 100 complete control), read-out: Plant response rating, Pigweed): 0%
- pest or weed control at 31 g/ha ([5]; 31 g ai/ha, 0 to 100 scale where 0 is no effect and 100 is complete control, read-out: Ragweed plant response rating): 0%
- pest or weed control at 125 g/ha ([5]; 125 g ai/ha, 0 to 100 scale (0 no effect, 100 complete control), read-out: Plant response rating, Ragweed): 0%
- pest or weed control at 31 g/ha ([6]; 31 g ai/ha, 0 to 100 scale where 0 is no effect and 100 is complete control, read-out: Ryegrass, Italian plant response rating): 0%
- pest or weed control at 125 g/ha ([6]; 125 g ai/ha, 0 to 100 scale (0 no effect, 100 complete control), read-out: Plant response rating, Ryegrass, Italian): 10%
- pest or weed control at 125 g/ha [7, 19]: 70%
- pest or weed control at 31 g/ha [7, 20]: 0%
- pest or weed control at 125 g/ha (Kochia (Kochia scoparia) [8]; [19]): 0%
- pest or weed control at 31 g/ha (Kochia (Kochia scoparia) [8]; [20]): 0%
- pest or weed control at 125 g/ha ([9]; 125 g ai/ha, visual rating about 10 d after treatment, read-out: Barnyardgrass plant response rating (0 to 100 scale, 0 no effect, 100 complete control)): 70%
- pest or weed control at 31 g/ha ([9]; 31 g ai/ha, 0 is no effect, 100 is complete control, read-out: Barnyardgrass plant response rating (0 to 100 scale)): 20%
- pest or weed control at 125 g/ha [10, 19]: 0%
- pest or weed control at 31 g/ha [10, 20]: 0%
- plant injury at 125 g/ha (corn (Zea mays); [19]): 0%
- plant injury at 31 g/ha (corn (Zea mays); [20]): 0%
- pest or weed control at 125 g/ha [11, 19]: 70%
- pest or weed control at 31 g/ha [11, 20]: 30%
- pest or weed control at 125 g/ha [12, 19]: 80%
- pest or weed control at 31 g/ha [12, 20]: 0%
- pest or weed control at 125 g/ha [13, 19]: 0%
- pest or weed control at 31 g/ha [13, 20]: 0%
- pest or weed control at 125 g/ha [14, 19]: 0%
- pest or weed control at 31 g/ha [14, 20]: 0%
- plant injury at 125 g/ha [15, 19]: 0%
- plant injury at 31 g/ha [15, 20]: 0%
- pest or weed control at 250 g/ha [16]: 40%
- pest or weed control at 250 g/ha [17]: 80%
- pest or weed control at 250 g/ha (rice (Oryra sativa)): 0%
- pest or weed control at 250 g/ha [18]: 0%
